Measured values from patent US20220305012A1, “L[…] TREATING SLEEP ISSUES” (EISAI R&D MANAGEMENT CO., LTD., priority 2019, published 2022).

Legend:
Assay type in all cases: in vivo, human
[1] = system: Subjects Having Insomnia Disorder; test: Example 2: minutes asleep in sleep stages (N1, N2, N3, REM, non-REM); details: both doses (FIG. 15)
Experimental: FIG. 13A, FIG. 13B, and FIG. 13C show the change from baseline (least squares mean) in the minutes asleep during Stage N1, Stage N2, and Stage N3 sleep, respectively, at Nights 1/2 and Nights 29/30 in patients treated with placebo, 6.25 mg of zolpidem, 5 mg of lemborexant, or 10 mg of lemborexant.

[2] = system: Subjects Having Insomnia Disorder; test: Example 1: subjective sleep efficiency (sSE), Sleep Diary
Description: As used herein, the term “subjective sleep efficiency”, abbreviated as “sSE”, means the proportion of sTST per subjective time spent in bed, calculated as the interval from the time the subject reports attempting to sleep until the time the subject stopped trying to sleep for the night (operationalized as the time the subject got out of bed for the day), and time spent asleep derived from subjective time spent in bed minus sWASO. As used herein, an “improvement of sleep efficiency in Subjective Sleep Efficiency (sSE)” means an increase in sleep efficiency in Subjective Sleep Efficiency (sSE).
(§1) In some embodiments, sleep diaries were used to assess sleep parameters reported by subjects (i.e., subjective assessments) including subjective sleep onset latency (sSOL), subjective sleep efficiency (sSE), subjective WASO (sWASO), and subjective total sleep time (sTST). Subjects were instructed to complete the Sleep Diary developed based on the consensus Sleep Diary as described in Carney et al., “The consensus sleep diary: standardizing prospective sleep self-monitoring,” Sleep 2012; 35(2):287-302. In some embodiments, the Sleep Diary was used to assess the subject's global perception of quality of sleep on the previous night with the following question: “How would you rate the quality of your sleep last night?” Subjects rated the quality of their sleep on a scale from 1 to 9, with 1 being extremely poor and 9 being extremely good. In some embodiments, the Sleep Diary was used to assess subjective ratings of morning sleepiness with the following question: “How alert/sleepy do you feel this morning?” Subjects rated their sleepiness/alertness level on a Likert scale from 1 to 9, with 1 being extremely sleepy and 9 being extremely alert.
sSE—subjective sleep efficiency: proportion of sTST per subjective time spent in bed, calculated as the interval from the time the subject reports attempting to sleep until the time the subject stopped trying to sleep for the night (operationalized as the time the subject got out of bed for the day), and time spent asleep derived from subjective time in bed minus sWASO.
(§2) Subjects were randomized in a double-blind manner and received either placebo, 5 mg of lemborexant, or 10 mg of lemborexant (approximately 1:1:1 randomization). All subjects underwent routine safety monitoring through the study, including assessments of treatment-emergent adverse events, 12-lead electrocardiograms, vital signs, weight, and clinical hematology and blood chemistry labs. Suicidality was assessed using the eC-SSRS.
(§3) Treatment period 1 began with the first dose of randomized study medication (placebo, 5 mg of lemborexant, or 10 mg of lemborexant). Subjects completed sleep diaries daily in the morning, within one hour of waketime. The subjects were assessed by a clinician one month, two months, three months, and six months after initiation of Treatment period 1. The following assessments were conducted:
This study had two key secondary endpoints. The first key secondary endpoint was the mean change from study baseline in subjective sleep efficiency at month 6. The second key secondary endpoint was the mean change from study baseline of subjective wake after sleep onset at month 6.

[3] = system: Subjects Having Insomnia Disorder; test: Example 1: subjective sleep onset latency (sSOL), Sleep Diary
Description: As used herein, the term “subjective sleep onset latency”, abbreviated as “sSOL”, means the estimated number of minutes from the time that the subject attempted to sleep until sleep onset. In some embodiments, sSOL is derived from data entered in a subject's Sleep Diary.
as §1
sSOL—subjective sleep onset latency: estimated minutes from the time that the subject attempted to sleep until sleep onset.
as §2, §3
The primary endpoint was the mean change from study baseline in subjective sleep onset latency at month 6.

SMILES: Cc1ncc(OC[C@@]2(c3cccc(F)c3)C[C@H]2C(=O)Nc2ccc(F)cn2)c(C)n1 [Lemborexant, (1R,2S)-2-(((2,4-dimethylpyrimidin-5-yl)oxy)methyl)-2-(3-fluorophenyl)-N-(5-fluoropyridin-2-yl)cyclopropanecarboxamide]
- non-REM sleep [1]: greater increase in non-REM sleep compared to treatment with placebo and zolpidem ER
- subjective sleep efficiency compared with placebo ([2]; 5 mg and 10 mg, at the equivalent timepoint (Table 3)): greater increase in subjective sleep efficiency than subjects treated with placebo
- sSE, Mean ([2]; 5 mg, First 7 Nights): 69.97%
- sSE, Median ([2]; 5 mg, First 7 Nights): 74.62%
- sSE, Mean ([2]; 5 mg, Month 1): 71.56%
- sSE, Median ([2]; 5 mg, Month 1): 76.35%
- sSE, Mean ([2]; 5 mg, Month 3): 77.29%
- sSE, Median ([2]; 5 mg, Month 3): 81.32%
- sSE, Mean ([2]; 5 mg, Month 6): 78.55%
- sSE, Median ([2]; 5 mg, Month 6): 82.02%
- sSE, Mean ([2]; 5 mg, Study Baseline): 63.14%
- sSE, Median ([2]; 5 mg, Study Baseline): 67.00%
- sSE Change from Study Baseline, Mean ([2]; 5 mg, after 1 Month): 7.87%
- sSE Change from Study Baseline, Median ([2]; 5 mg, after 1 Month): 6.75%
- sSE Change from Study Baseline, Mean ([2]; 5 mg, after 3 Months): 13.03%
- sSE Change from Study Baseline, Median ([2]; 5 mg, after 3 Months): 11.63%
- sSE Change from Study Baseline, Mean ([2]; 5 mg, after 6 Months): 15.34%
- sSE Change from Study Baseline, Median ([2]; 5 mg, after 6 Months): 13.33%
- sSE Change from Study Baseline, Mean ([2]; 5 mg, after 7 Nights): 6.61%
- sSE Change from Study Baseline, Median ([2]; 5 mg, after 7 Nights): 5.45%
- sSE LSM treatment difference: Lemborexant-Placebo ([2]; 5 mg, change from Study Baseline after 1 Month): 2.227%
- sSE LSM treatment difference: Lemborexant-Placebo ([2]; 5 mg, change from Study Baseline after 3 Months): 4.222%
- sSE LSM treatment difference: Lemborexant-Placebo ([2]; 5 mg, change from Study Baseline after 6 Months): 4.549%
- sSE LSM treatment difference: Lemborexant-Placebo ([2]; 5 mg, change from Study Baseline after 7 Nights): 4.299%
- sSE, Mean ([2]; 10 mg, First 7 Nights): 69.96%
- sSE, Median ([2]; 10 mg, First 7 Nights): 71.85%
- sSE, Mean ([2]; 10 mg, Month 1): 71.04%
- sSE, Median ([2]; 10 mg, Month 1): 74.70%
- sSE, Mean ([2]; 10 mg, Month 3): 75.15%
- sSE, Median ([2]; 10 mg, Month 3): 78.30%
- sSE, Mean ([2]; 10 mg, Month 6): 76.53%
- sSE, Median ([2]; 10 mg, Month 6): 80.22%
- sSE, Mean ([2]; 10 mg, Study Baseline): 62.03%
- sSE, Median ([2]; 10 mg, Study Baseline): 65.05%
- sSE Change from Study Baseline, Mean ([2]; 10 mg, after 1 Month): 9.92%
- sSE Change from Study Baseline, Median ([2]; 10 mg, after 1 Month): 9.00%
- sSE Change from Study Baseline, Mean ([2]; 10 mg, after 3 Months): 13.61%
- sSE Change from Study Baseline, Median ([2]; 10 mg, after 3 Months): 12.62%
- sSE Change from Study Baseline, Mean ([2]; 10 mg, after 6 Months): 15.55%
- sSE Change from Study Baseline, Median ([2]; 10 mg, after 6 Months): 13.91%
- sSE Change from Study Baseline, Mean ([2]; 10 mg, after 7 Nights): 8.27%
- sSE Change from Study Baseline, Median ([2]; 10 mg, after 7 Nights): 7.17%
- sSE LSM treatment difference: Lemborexant-Placebo ([2]; 10 mg, change from Study Baseline after 1 Month): 3.615%
- sSE LSM treatment difference: Lemborexant-Placebo ([2]; 10 mg, change from Study Baseline after 3 Months): 4.361%
- sSE LSM treatment difference: Lemborexant-Placebo ([2]; 10 mg, change from Study Baseline after 6 Months): 4.667%
- sSE LSM treatment difference: Lemborexant-Placebo ([2]; 10 mg, change from Study Baseline after 7 Nights): 5.793%
- subjective sleep onset latency compared with placebo ([3]; 5 mg and 10 mg, at the equivalent timepoint (Table 2)): shorter subjective sleep onset latency than subjects treated with placebo
- sSOL, Geometric Mean ([3]; 5 mg, First 7 Nights): 30.99 min
- sSOL, Mean ([3]; 5 mg, First 7 Nights): 45.69 min
- sSOL, Median ([3]; 5 mg, First 7 Nights): 36.58 min
- sSOL, Geometric Mean ([3]; 5 mg, Month 1): 26.98 min
- sSOL, Mean ([3]; 5 mg, Month 1): 41.89 min
- sSOL, Median ([3]; 5 mg, Month 1): 32.50 min
- sSOL, Geometric Mean ([3]; 5 mg, Month 3): 21.72 min
- sSOL, Mean ([3]; 5 mg, Month 3): 34.31 min
- sSOL, Median ([3]; 5 mg, Month 3): 24.79 min
- sSOL, Geometric Mean ([3]; 5 mg, Month 6): 18.62 min
- sSOL, Mean ([3]; 5 mg, Month 6): 29.49 min
- sSOL, Median ([3]; 5 mg, Month 6): 22.29 min
- sSOL, Geometric Mean ([3]; 5 mg, Study Baseline): 42.97 min
- sSOL, Mean ([3]; 5 mg, Study Baseline): 62.19 min
- sSOL, Median ([3]; 5 mg, Study Baseline): 53.57 min
- sSOL Change from Study Baseline, Mean ([3]; 5 mg, after 1 Month): -19.41 min
- sSOL Change from Study Baseline, Median ([3]; 5 mg, after 1 Month): -13.71 min
- sSOL Change from Study Baseline, Mean ([3]; 5 mg, after 3 Months): -25.08 min
- sSOL Change from Study Baseline, Median ([3]; 5 mg, after 3 Months): -20.71 min
- sSOL Change from Study Baseline, Mean ([3]; 5 mg, after 6 Months): -29.39 min
- sSOL Change from Study Baseline, Median ([3]; 5 mg, after 6 Months): -21.81 min
- sSOL Change from Study Baseline, Mean ([3]; 5 mg, after 7 Nights): -16.86 min
- sSOL Change from Study Baseline, Median ([3]; 5 mg, after 7 Nights): -11.00 min
- sSOL, Geometric Mean ([3]; 10 mg, First 7 Nights): 30.77 min
- sSOL, Mean ([3]; 10 mg, First 7 Nights): 45.94 min
- sSOL, Median ([3]; 10 mg, First 7 Nights): 35.71 min
- sSOL, Geometric Mean ([3]; 10 mg, Month 1): 27.14 min
- sSOL, Mean ([3]; 10 mg, Month 1): 41.93 min
- sSOL, Median ([3]; 10 mg, Month 1): 31.79 min
- sSOL, Geometric Mean ([3]; 10 mg, Month 3): 22.71 min
- sSOL, Mean ([3]; 10 mg, Month 3): 36.13 min
- sSOL, Median ([3]; 10 mg, Month 3): 26.42 min
- sSOL, Geometric Mean ([3]; 10 mg, Month 6): 19.35 min
- sSOL, Mean ([3]; 10 mg, Month 6): 33.09 min
- sSOL, Median ([3]; 10 mg, Month 6): 23.57 min
- sSOL, Geometric Mean ([3]; 10 mg, Study Baseline): 45.05 min
- sSOL, Mean ([3]; 10 mg, Study Baseline): 64.97 min
- sSOL, Median ([3]; 10 mg, Study Baseline): 55.71 min
- sSOL Change from Study Baseline, Mean ([3]; 10 mg, after 1 Month): -24.06 min
- sSOL Change from Study Baseline, Median ([3]; 10 mg, after 1 Month): -19.86 min
- sSOL Change from Study Baseline, Mean ([3]; 10 mg, after 3 Months): -27.94 min
- sSOL Change from Study Baseline, Median ([3]; 10 mg, after 3 Months): -25.71 min
- sSOL Change from Study Baseline, Mean ([3]; 10 mg, after 6 Months): -32.49 min
- sSOL Change from Study Baseline, Median ([3]; 10 mg, after 6 Months): -28.21 min
- sSOL Change from Study Baseline, Mean ([3]; 10 mg, after 7 Nights): -18.89 min
- sSOL Change from Study Baseline, Median ([3]; 10 mg, after 7 Nights): -12.21 min
